Structures are written as SMILES.

Series [1] concerns pp28 luciferase-recombinant Towne HCMV. In words: pp28-luciferase Towne HCMV replication assay in HFFs. The following applies: for Selectivity index (SI): CC50/EC50; for EC50: Human betaherpesvirus 5. The class given is cell-based, human cytomegalovirus. As for the experimental part:
Six ozonizes have been tested for inhibition of HCMV replication and toxicity in human foreskin fibroblasts (Table 1, FIG. 1). The pp28 luciferase-recombinant Towne was used to measure HCMV replication, and an MTT assay—for cell viability. […] (FIG. 1).
The pp28-luciferase Towne CMV strain was constructed as previously described (31). The recombinant virus expresses luciferase under the control of UL99 (pp28) late promoter 48-72 h post infection (hpi). […] Luciferase activity highly correlates with plaque reduction assay. The Towne CMV (ATCC VR-977) and TB40 strains (ATCC VR-1578) were used for plaque reduction, DNA replication, and cell cycle assays.
HFFs passage 12-16 (ATCC, CRL-2088) were grown in Dulbecco's Modified Eagle Medium (DMEM) containing 10% fetal bovine serum (FBS) (Gibco, Carlsbad, Calif.) in a 5% CO2 incubator at 37° C. and used for infection with pp28-luciferase Towne CMV. HCT116 (Human Colorectal Carcinoma) (ATCC, CCL-247) cells were maintained in DMEM containing 10% fetal bovine serum.
To determine the effect of cell density/cycling on the anti-HCMV activity of ozonides, HFFs were plated at 0.5×10^6, 1×10^6, 2×10^6 or 3×10^6 cells/96 well-plate 24 h prior to infection. Infection was carried out at multiplicity of infection of 1 PFU/cell (MOI=1). Following 90 minute adsorption, media containing virus was removed and replaced by DMEM with 4% FBS (Gibco) containing anti-viral compounds. Infected treated HFFs were collected at 72 hpi and pp28 activity was quantified by a Luciferase Assay Kit (Promega, Madison, Wis.) on GloMaxH-Multi+ Detection System (Promega) according to manufacturer's instructions.

The nature of another series: MTT cell viability assay. Type of series: cell-based. The following applies: human foreskin fibroblasts. As for the experimental part:
Six ozonizes have been tested for inhibition of HCMV replication and toxicity in human foreskin fibroblasts (Table 1, FIG. 1). The pp28 luciferase-recombinant Towne was used to measure HCMV replication, and an MTT assay—for cell viability.
Cells were seeded in 96-well plates, treated with various concentrations of ozonides and incubated at 37° C. for 3 days. Cell viability was determined by an MTT-based colorimetric assay (Sigma-Aldrich), and performed at the same time points as the antiviral assay.
For orientation: Tetrazolium dyes change colour on reduction, which living cells bring about.

Series [2] relates to pp28 luciferase-recombinant Towne HCMV. The settings on record: in the presence of viral DNA polymerase inhibitors; previously described; cited from earlier work.
The test system of series [3] is CDK 1, 2, 4, pRb and E2F1 expression. Kind of series: Immunoblot of CDKs, pRb and E2F1, HCMV-infected HFFs. The class given is cell-based, human. As for the experimental part:
Cell lysates were quantified for total protein content using Pierce bicinchoninic acid (BCA) protein assay kit (Thermo-Fisher Scientific, Waltham, Mass.). Equivalent amounts of protein were mixed with an equal volume of sample buffer (125 mM Tris-HCl [pH 6.8], 4% SDS 20% glycerol, 5% β-mercaptoethanol) and boiled at 100° C. for 10 min. Denatured proteins were resolved in Tris-glycine polyacrylamide gels (10% to 12%) and transferred to polyvinylidene difluoride membranes (Bio-Rad Laboratories, Hercules, Calif.) by electroblotting. Membranes were incubated in blocking solution (5% nonfat dry milk/BSA and 0.1% Tween 20 in PBS [PBST]) for 1 h, washed three times with PBST, and incubated primary antibodies diluted in 5% milk or BSA (for pRb) at 4° C. overnight. The membranes were washed with PBST, followed by incubation with horseradish peroxidase (HRP)-conjugated secondary antibodies in 5% milk/BSA for 1 h at room temperature. After three washing steps with PBST, protein bands were visualized by chemiluminescence using SuperSignal West Pico reagent (Pierce Chemical, Rockford, Ill.). […]

The subject of series [4] is HCMV in high density and low density HFFs. The settings on record: Roy S., 2015; cited from earlier work.
The test system of the next series is pp28-luciferase HCMV. In words: Add-on and removal experiments. The class given is cell-based, human cytomegalovirus. The following applies: luciferase at 72 hpi. As to the method:
HFFs were infected with the pp28-luciferase HCMV as described above. At 0, 6, 12, 24, 36 and 48 hpi, the media were replaced by the media containing OZ418 or GCV. For time-of-removal studies, media containing the compounds were removed at 0, 6, 12, 24, 36 and 48 hpi, cells were then washed three times with PBS, and drug-free medium was added. The cells were incubated at 37° C., and luciferase assays were carried out at 72 hpi.

In the next series the test system is non-infected HFFs. The settings on record: literature report; cited from earlier work.
The subject of series [5] is pp28-luciferase Towne CMV strain. Kind of series: Drug combination with GCV (Bliss model). The settings on record: FIGS. 4D and E. The class given is cell-based, human cytomegalovirus. As to the method: Drug combinations were performed as previously reported (33). Briefly, 2×10^6 HFFs were seeded in a 96-well plate and infected with the pp28-luciferase Towne CMV strain at MOI=1. First, a dose response curve was generated for each drug individually to determine its EC50. […] Luciferase activity of the combination and each drug individually was quantified at 72 hpi. The Bliss model was used to calculate the effect of each drug combination on pp28-luciferase activity. In this model, drug combination represents the product of two probabilistically independent events as described in the following equation (23):
[formula] Where D is the drug concentration, m is the slope, and EC50 is the effective concentration resulting in 50% virus inhibition. The combined effect of two inhibitors (FU, fractional unaffected) is computed as the product of individual effects of the two inhibitors, FU1 and FU2. If the ratio of observed fold inhibition divided by the expected fold inhibition is greater than 1, the compounds are synergistic. If the ratio is less than 1, the combination is considered antagonistic, and if it equals to 1 the combination is additive.

For the compound `O=C(O)C1CCN(CCOc2ccc([C@H]3CC[C@]4(CC3)OO[C@]3(O4)C4CC5CC(C4)CC3C5)cc2)CC1` [OZ721], in series [1], the “Selectivity index (SI)” value came out at 7.89 ± 0.35 and the EC50 was determined as 5.75 ± 0.74 µM. The compound also displayed a half-maximal cytotoxic concentration (CC50) at 3 days in the series “MTT cell viability assay” of 45.5 ± 6.82 µM.
`O=C(O)P(=O)(O)O` [foscarnet]: the “Luciferase expression from UL99 (pp28) late promoter” value in series [2] is “almost completely inhibited”.
Consider `OC1CCN(CCOc2ccc([C@H]3CC[C@]4(CC3)OO[C@]3(O4)C4CC5CC(C4)CC3C5)cc2)CC1` [OZ513b], for which, in series [1], the “Selectivity index (SI)” value turned out to be 3.14 ± 0.20 and the EC50 was found to be 15.7 ± 0.87 µM. This compound also displayed a half-maximal cytotoxic concentration (CC50) at 3 days in the series “MTT cell viability assay” of 49.4 ± 3.67 µM.
For the compound `c1cc([C@H]2CC[C@]3(CC2)OO[C@]2(O3)C3CC4CC(C3)CC2C4)ccc1OCCN1CCOCC1` [OZ439, artefenomel], in series [1], the 50% effective concentration (EC50) came to 13.2 ± 1.27 µM.
On to `Nc1nc(O)c2ncn(COC(CO)CO)c2n1` [GCV, ganciclovir, reference compound], for which, in series [2], the “Luciferase expression from UL99 (pp28) late promoter” value was “almost completely inhibited”. Also, the “Expression level of CDKs, pRb and E2F1” value in series [3] is on record as “did not exhibit any effects on pRb/CDKs expression”.
In the case of `C[C@H]1[C@H](OC(=O)CCC(=O)O)O[C@@H]2O[C@@]3(C)CC[C@H]4[C@H](C)CC[C@@H]1[C@@]24OO3` [AS, Artesunate, reference compound], the “Cell-density dependence of anti-HCMV activity (reported)” value in series [4] is given as “cell-density dependent”. Also, the “Timing of anti-HCMV activity” value in the series with pp28-luciferase HCMV was “lost anti-HCMV activity when added after 24 h post infection”. In the series on non-infected HFFs, the “Cell cycle effect (reported)” value is “arrest cell cycle in early G1”. Also, the “Combination effect with GCV against HCMV” value in series [5] is listed as “synergistic activity with GCV”.
For `CC(C)(N)CNC(=O)C[C@H]1CC[C@]2(CC1)OO[C@]1(O2)C2CC3CC(C2)CC1C3` [OZ277, arterolane, reference compound], in series [1], the “Selectivity index (SI)” value turned out to be 1.98 ± 0.09 and the EC50 worked out at 17.1 ± 1.31 µM. In addition, in “MTT cell viability assay”, half-maximal cytotoxicity (CC50 at 3 days) was put at 33.7 ± 1 µM.

Usually EC50 stands for the concentration at which the effect is half-maximal. One may read the CC50 as the concentration at which the toxic effect on the cells reaches its halfway point.

The values above are taken from patent US11246854B2, “Ozonides for treating or preventing virus infections” (THE JOHNS HOPKINS UNIVERSITY, priority 2017, dated 2022).
